# Data from patent publication US9140688B2, “Sperm staining and sorting methods” (INGURAN, LLC, priority 2011, dated 2015).
# Key:
# [1] = tested on: membrane compromised bovine sperm stained with Hoechst 33342; test: Dead quenching: dead gate intensity divided by live gate intensity, flow cytometry of stained bovine sperm; format: cell-based; conditions: for Dead Intensity (dead gate intensity divided by live gate intensity): Ex 5; for Intensity (dead gate): Hoechst 48 μM
# Text: FIG. 4 illustrates an example bivariate plot and univariate histogram of the parameters measured during sex selection by a FACS on a flow cytometer. […] Without a dead quenching dye, both populations of sperm would overlap to a large extent, with unpredictable variations in the dead sperm.
# The entire ejaculate of sperm was suspended in first staining buffer, specifically a 7.4 pH TALP described in TABLE 1, to a concentration of 160×10^6 sperm per mL (determined on nucleocounter) and divided into three aliquots of about 20 mL into 50 mL Falcon tubes and pre-warmed for 10 minutes at 34° C. The DNA selective fluorescent dye, Hoechst 33342, was added and samples were held at 34° C. for 60 minutes. 3 different Hoechst 33342 Stain Levels were used=12 μL, 14 μL and 16 μL per 2 mL (effective concentrations of 48 μM, 56 μM, 64 μM).
# Preparation of the second buffer including the dead quenching dye—A 2 L bag of TALP, described in TABLE 1, was adjusted to pH 5.60 using HCl and then sterile filtered. […] For each of the four dyes tested (R40—red food dye No. 40, Y5—yellow food dye No. 5, Y6—yellow food dye No. 6 and PR—phenol red), an appropriate number of milligrams of each powder was placed in a Erlenmeyer Flask and then an exact amount of TALP pH 5.60 was added to create a […] concentration of the dye. The result was a working TALP stock for each dye with a 100% (125 μM) relative amount of dye 50% relative (62.5 μM) and 20% relative (25 μM) solutions were made by dilution of 100% by TALP pH 5.60.
# After this “bulk” staining for 60 minutes, 1 mL aliquots of stained sperm were combined with 1 mL aliquots of the second buffer including the dead quenching dyes. Samples sat for approximately 30 minutes at room temperature before being analyzed on a MoFlo SX (Beckman Coulter, USA) sperm sorting flow cytometer. Event rates were held as close to 13,000 as possible at the point of data acquisition.
# The total number of individual treatments was 42 tubes, each containing 2 mL of stained sample. The alignment of the sorter was established using nuclei and confirmed with live sample from the 50% Red 40 series. Once good alignment was established, each tube was placed on the sorter long enough to establish a stabile dead gate population (about 30 seconds) and then a screenshot was taken and saved as a .jpeg image. This approach of rapidly documenting each sample is used to assure the most consistent alignment between all samples. Realignment of sorter will not cause differences in the intensities of live and dead gate populations but will cause differences in split quality.
# FIG. 4 illustrates an example histogram. The ratio of dead gate intensity divided by live gate intensity is created by dividing the distance “A” by the distance “B” shown as a percentage. Lower values mean higher levels of quenching. The ratio of peak height divided by valley height is created by dividing the distance “C” by the distance “D”. A value of 1.00 means “no split” while higher values mean “better splits”. […]
# [2] = solvent water; shorter-wavelength local maximum; cited from earlier work
# [3] = tested on: X- and Y-chromosome bearing bovine sperm stained with Hoechst 33342; test: Split quality: height of peak divided by height of valley (PV), flow cytometry of stained bovine sperm; format: cell-based; conditions: for Height of Peak/Height of Valley: Ex 5; for PV: Ex 6, resulting pH 6.70
# [4] = tested on: sperm; conditions: background statement; cited from earlier work
# [5] = dye 62.5 μM, Hoechst 12 μL/2 mL
# [6] = dye 62.5 μM, Hoechst 14 μL/2 mL
# [7] = dye 62.5 μM, Hoechst 16 μL/2 mL
structure (smiles),measurement,setting,value
"O=C([O-])C1=NN(c2ccc(S(=O)(=O)[O-])cc2)C(=O)/C1=N/Nc1ccc(S(=O)(=O)[O-])cc1.[Na+].[Na+].[Na+] [Yellow 5, Trisodium (4E)-5-oxo-1-(4-sulfonatophenyl)-4-[(4-sulfonatophenyl)hydrazono]-3-pyrazolecarboxylate]",Dead Intensity (dead gate intensity divided by live gate intensity),"[1]; dye 25 μM, Average of Hoechst levels",90%
same,Dead Intensity (dead gate intensity divided by live gate intensity),"[1]; dye 25 μM, Hoechst 12 μL/2 mL",90%
same,Dead Intensity (dead gate intensity divided by live gate intensity),"[1]; dye 25 μM, Hoechst 14 μL/2 mL",90%
same,Dead Intensity (dead gate intensity divided by live gate intensity),"[1]; dye 25 μM, Hoechst 16 μL/2 mL",90%
same,Dead Intensity (dead gate intensity divided by live gate intensity),"[1]; dye 62.5 μM, Average of Hoechst levels",74%
same,Dead Intensity (dead gate intensity divided by live gate intensity),[1]; [5],74%
same,Dead Intensity (dead gate intensity divided by live gate intensity),[1]; [6],77%
same,Dead Intensity (dead gate intensity divided by live gate intensity),[1]; [7],70%
same,Dead Intensity (dead gate intensity divided by live gate intensity),"[1]; dye 125 μM, Average of Hoechst levels",57%
same,Dead Intensity (dead gate intensity divided by live gate intensity),"[1]; dye 125 μM, Hoechst 12 μL/2 mL",54%
same,Dead Intensity (dead gate intensity divided by live gate intensity),"[1]; dye 125 μM, Hoechst 14 μL/2 mL",63%
same,Dead Intensity (dead gate intensity divided by live gate intensity),"[1]; dye 125 μM, Hoechst 16 μL/2 mL",55%
same,amount of dye needed for a similar dead gate intensity ratio as red food dye No. 40 and yellow food dye No. 6,[1]; Ex 6,about five times as much
same,Intensity (dead gate),"[1]; Ex 6, dye 125 μM, resulting pH 6.70",63%
same,Intensity (dead gate),"[1]; Ex 6, dye 250 μM, resulting pH 6.70",48%
same,Intensity (dead gate),"[1]; Ex 6, dye 500 μM, resulting pH 6.70",43%
same,Intensity (dead gate),"[1]; Ex 6, dye 750 μM, resulting pH 6.70",<30%
same,Intensity (dead gate),"[1]; Ex 6, dye 875 μM, resulting pH 6.70",<30%
same,Intensity (dead gate),"[1]; Ex 6, dye 1250 μM, second buffer pH 5.60 (resulting pH 6.70)",<30%
same,Expected Absorption Maxima,[2],422 nm
same,Height of Peak/Height of Valley,"[3]; dye 25 μM, Average of 12 and 14 μL series",1.72
same,Height of Peak/Height of Valley,"[3]; dye 25 μM, Hoechst 12 μL/2 mL",1.90
same,Height of Peak/Height of Valley,"[3]; dye 25 μM, Hoechst 14 μL/2 mL",1.54
same,Height of Peak/Height of Valley,"[3]; dye 25 μM, Hoechst 16 μL/2 mL",1.00
same,Height of Peak/Height of Valley,"[3]; dye 62.5 μM, Average of 12 and 14 μL series",1.65
same,Height of Peak/Height of Valley,[3]; [5],1.60
same,Height of Peak/Height of Valley,[3]; [6],1.70
same,Height of Peak/Height of Valley,[3]; [7],1.00
same,Height of Peak/Height of Valley,"[3]; dye 125 μM, Average of 12 and 14 μL series",1.82
same,Height of Peak/Height of Valley,"[3]; dye 125 μM, Hoechst 12 μL/2 mL",1.72
same,Height of Peak/Height of Valley,"[3]; dye 125 μM, Hoechst 14 μL/2 mL",1.92
same,Height of Peak/Height of Valley,"[3]; dye 125 μM, Hoechst 16 μL/2 mL",1.03
same,PV,"[3]; dye 125 μM, Hoechst 48 μM",1.00
same,PV,"[3]; dye 250 μM, Hoechst 48 μM",1.00
same,PV,"[3]; dye 500 μM, Hoechst 48 μM",1.00
same,PV,"[3]; dye 750 μM, Hoechst 48 μM",1.00
same,PV,"[3]; dye 875 μM, Hoechst 48 μM",1.00
same,PV,"[3]; dye 1250 μM, Hoechst 48 μM (understained)",1.00
CC[N+](C)(CC)CCC[n+]1c(-c2ccccc2)c2cc(N)ccc2c2ccc(N)cc21.[I-].[I-] [propidium iodine],toxicity to sperm,[4],toxic to sperm
